Assay results: US20240374573A1, “IMIDAZOLE CONTAINING COMPOUNDS, DERIVATIVES THEREFORE, AND USES THEREOF” (AglaeaPharma Inc., priority 2023, published 2024)
pEC50, pKi: −log10 of the molar value.

What was measured:
[1] = target: T1, α2AAR (α2A-adrenergic receptor) (Homo sapiens, UniProt P08913); assay: α2AAR FLIPR assay (agonist activity); format: cell-based; conditions: FLIPR, α2AAR cell line hosted in HEK293 cells; read-out: α2A agonist activity (EC50)
T1 construct: expressed in transfected cells; host or cells: HEK293
T1 sequence (P08913 1-465): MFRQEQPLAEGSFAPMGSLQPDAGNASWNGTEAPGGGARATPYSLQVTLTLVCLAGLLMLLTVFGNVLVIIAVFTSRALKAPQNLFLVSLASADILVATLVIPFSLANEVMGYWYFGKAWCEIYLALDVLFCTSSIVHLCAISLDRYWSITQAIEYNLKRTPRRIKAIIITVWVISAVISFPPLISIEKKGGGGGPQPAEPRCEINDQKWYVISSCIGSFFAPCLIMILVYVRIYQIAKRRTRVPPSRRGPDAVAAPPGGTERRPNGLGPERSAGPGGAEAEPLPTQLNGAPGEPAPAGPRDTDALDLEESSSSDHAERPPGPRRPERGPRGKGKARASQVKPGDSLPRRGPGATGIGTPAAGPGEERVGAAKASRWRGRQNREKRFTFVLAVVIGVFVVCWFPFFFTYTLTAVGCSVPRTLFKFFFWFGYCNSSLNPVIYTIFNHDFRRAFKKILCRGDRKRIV
Description: This experimental protocol involved cell seeding and a FLIPR assay using the α2AAR (α2A-adrenergic receptor) cell line hosted in HEK293 cells. […] On Day 1, the cell seeding process started with the removal of the culture medium, followed by rinsing the cells with DPBS (21-031-CVC, Corning). […] The cells were detached, resuspended in growth media, and centrifuged at room temperature at 1000 rpm for 5 minutes. After discarding the supernatant, the cell pellet was resuspended in growth media to a concentration of 10× 10^5 cells per mL. This suspension was added to 384-well plates (19-Jul-38, Greiner) at 20 μL per well and incubated overnight at 37° C. in 5% CO2.
A 250 mM Probenecid solution was prepared in this buffer. The Fluo-4 Direct™ Loading Buffer was made by dissolving Fluo-4 Direct™ crystals (F10471, Invitrogen) in the FLIPR Assay Buffer and adding Probenecid. The buffer was then vortexed and allowed to stand for over 5 minutes, shielded from light. For the FLIPR procedure, testing compounds for agonist activite were serially diluted and transferred to a 384-well compound plate (25-Jan-39, Greiner). The cell plate was then treated with 2× Fluo-4 Direct™ loading buffer and incubated for 50 minutes at 37° C. in a 5% CO2 atmosphere, followed by 10 minutes at room temperature. Subsequently, the FLIPR assay buffer was added to the compound plate, which is then centrifuged.
The cell plate was analyzed in the FLIPR Tetra+ System for fluorescence signals. For the agonist test, reference compounds were added to the cell plates, and fluorescence was measured. The “Max-Min” calculation began from Read 1 to the maximum allowed. The data were analyzed using Prism software to calculate activation percentage for agonists and inhibition percentage for antagonists. The results were then fitted using specific models to determine EC50 for agonists.
The experimental protocol utilized various reagents and apparatus, including Penicillin/Streptomycin (100×) (SV30010, Hyclone), Poly-L-lysine hydrobromide (P1399, Sigma), and different types of 384-well plates such as the 384-Well PP 2.0 Microplate (PP-0200, LABCYTE) and 384 well Low Dead Volume Microplate (LP-0200, LABCYTE). The use of specific reference compounds like UK14304 was also integral to the assay.

[2] = target: T2, α2AAR (Homo sapiens, UniProt P08913); assay: α2AAR binding assay ([3H]-RX 821002 radioligand); conditions: [3H]-RX 821002 0.5 nM, HEK293 membranes; read-out: α2A affinity (Ki)
T2 construct: host or cells: HEK293 (membranes)
T2 sequence (P08913 1-465): T1 sequence (P08913 1-465)
Description: The α2AR Binding Assay was conducted using a stable HEK293 cell line, specifically constructed by WuXi AppTec for targeting α2AAR. […] Both the assay and wash buffers consist of 50 mM Tris-HCl at a pH of 7.4 (Tris base, Sigma, T1503-1 KG).
The procedure initiated with the preparation of test compounds and a reference compound, yohimbine (Sigma, Y3125), through an 8-point 4-fold serial dilution, transferring 1 μL of each to the assay plate. […] After scaling, the plates were agitated at room temperature for one hour. Subsequently, the Unifilter-96 GF/C filter plates were pre-soaked with 0.3% PEI (Sigma, P3143) for at least half an hour. The reaction mixtures were then filtered and washed four times with cold wash buffer using a Perkin Elmer Cell harvester. Post-filtration, the plates were dried at 50° C. for one hour. […] The top of the plates was then sealed with TopSeal-A sealing film. The trapped 3H was quantified using a Perkin Elmer MicroBeta2 Reader. […] Finally, the data were analyzed with Prism 5.0 software, employing the “log (inhibitor) vs. response-Variable slope” model for data fitting. This comprehensive process ensured precise assessment of the binding affinity of compounds to the α2AAR.

Compound	pEC50 [1]	pKi [2]
Cc1cccc(C(c2cccc(C(=O)NC3CCOCC3)c2)c2c[nH]cn2)c1C (racemic) [compound 121]	> 8.00	7.30 to 8.00
Cc1cccc(C(Cc2ccc(NS(C)(=O)=O)cc2)c2c[nH]cn2)c1C (racemic) [compound 136]	> 8.00	> 8.00
Cc1cccc(C(Cc2ccc(C(N)=O)c(F)c2)c2c[nH]cn2)c1C (racemic) [compound 156]	> 8.00	> 8.00
Cc1cccc(C(c2cccc(NC(=O)CC#N)c2)c2c[nH]cn2)c1C (single isomer, unassigned) [10-B]	7.30 to 8.00	7.30 to 8.00
CNC(=O)NCCOCCOCC(c1c[nH]cn1)c1cccc(C)c1C (single isomer, unassigned) [17-B]	7.30 to 8.00	7.30 to 8.00
Cc1cccc(C(c2cccc(NC(=O)CCC#N)c2)c2c[nH]cn2)c1C (single isomer, unassigned) [43-B]	7.30 to 8.00	7.30 to 8.00
Cc1cccc(C(c2cccc(NS(C)(=O)=O)c2)c2c[nH]cn2)c1C (single isomer, unassigned) [44-B]	7.30 to 8.00	> 8.00
Cc1cccc(C(c2cccc(C(=O)NCC3CCOCC3)c2)c2c[nH]cn2)c1C (single isomer, unassigned) [98-B]	> 8.00	> 8.00
Cc1cccc(C(Cc2cccc(NS(=O)(=O)CC3CCOCC3)c2)c2c[nH]cn2)c1C (single isomer, unassigned) [112-B]	7.30 to 8.00	> 8.00
Cc1cccc(C(Cc2ccc(C(C)C(=O)O)cc2)c2c[nH]cn2)c1C (single isomer, unassigned) [174-B]	7.30 to 8.00	7.30 to 8.00
Cc1cccc(C(Cc2ccc(C(C)C(=O)O)cc2)c2c[nH]cn2)c1C (single isomer, unassigned) [174-D]	7.30 to 8.00	7.30 to 8.00
Cc1cccc(C(Cc2ccc(C(=O)O)cc2)c2c[nH]cn2)c1C (single isomer, unassigned) [175-B]	7.30 to 8.00	6.60 to 7.30
CONC(=O)c1cccc(C(c2c[nH]cn2)c2cccc(C)c2C)c1 (stereo not drawn) [compound 1]	6.60 to 7.30	6.60 to 7.30
Cc1cccc(C(COCCOCCNC(=O)Nc2ccncn2)c2c[nH]cn2)c1C (stereo not drawn) [compound 20]	7.30 to 8.00	6.60 to 7.30
Cc1cccc(C(c2cccc(OCCNS(C)(=O)=O)c2)c2c[nH]cn2)c1C (stereo not drawn) [compound 22]	7.30 to 8.00	7.30 to 8.00
Cc1cccc(C(COCCOCCOCCNS(C)(=O)=O)c2c[nH]cn2)c1C (stereo not drawn) [compound 26]	7.30 to 8.00	6.60 to 7.30
Cc1cccc(C(c2c[nH]cn2)c2cccc(C(N)=O)c2F)c1C (stereo not drawn) [compound 27]	7.30 to 8.00	> 8.00
CNS(=O)(=O)c1cccc(C(c2c[nH]cn2)c2cccc(C)c2C)c1 (stereo not drawn) [compound 28]	7.30 to 8.00	7.30 to 8.00
Cc1cccc(C(c2cccc(NS(C)(=O)=O)c2)c2c[nH]cn2)c1C (stereo not drawn) [compound 29]	7.30 to 8.00	> 8.00
CC(=O)Nc1cccc(C(c2c[nH]cn2)c2cccc(C)c2C)c1 (stereo not drawn) [compound 30]	6.60 to 7.30	6.60 to 7.30
Cc1cccc(C(c2ccnc(C(N)=O)c2)c2c[nH]cn2)c1C (stereo not drawn) [compound 31]	7.30 to 8.00	6.60 to 7.30

Compound	pEC50 [1]	pKi [2]
Cc1cccc(C(c2cccc(NCCC#N)c2)c2c[nH]cn2)c1C (stereo not drawn) [compound 32]	6.60 to 7.30	6.60 to 7.30
Cc1cccc(C(c2cccc(NC(=O)CCC#N)c2)c2c[nH]cn2)c1C (stereo not drawn) [compound 43]	7.30 to 8.00	7.30 to 8.00
CC(=O)Nc1cccc(C(c2c[nH]cn2)c2cccc(C)c2C)c1F (stereo not drawn) [compound 50]	6.60 to 7.30	6.60 to 7.30
Cc1cccc(C(c2c[nH]cn2)c2cccc(NS(C)(=O)=O)c2F)c1C (stereo not drawn) [compound 51]	6.60 to 7.30	7.30 to 8.00
CONC(=O)c1cccc(C(c2c[nH]cn2)c2cccc(C)c2C)c1F (stereo not drawn) [compound 54]	7.30 to 8.00	7.30 to 8.00
CONC(=O)c1cccc(CC(c2c[nH]cn2)c2cccc(C)c2C)c1 (stereo not drawn) [compound 61]	7.30 to 8.00	7.30 to 8.00
CSCCC(=O)Nc1cccc(C(c2c[nH]cn2)c2cccc(C)c2C)c1 (stereo not drawn) [compound 63]	7.30 to 8.00	7.30 to 8.00
Cc1cccc(C(c2cccc(NC(=O)CCN3CCOCC3)c2)c2c[nH]cn2)c1C (stereo not drawn) [compound 70]	7.30 to 8.00	7.30 to 8.00
Cc1cccc(C(Cc2cccc(NS(C)(=O)=O)c2)c2c[nH]cn2)c1C (stereo not drawn) [compound 76]	6.60 to 7.30	> 8.00
Cc1cccc(C(c2cccc(NC(=O)CC3CCNC3)c2)c2c[nH]cn2)c1C (stereo not drawn) [compound 79]	6.60 to 7.30	7.30 to 8.00
Cc1cccc(C(c2cccc(C(=O)CCC#N)c2)c2c[nH]cn2)c1C (stereo not drawn) [compound 85]	6.60 to 7.30	7.30 to 8.00
Cc1cccc(C(c2cccc(NS(=O)(=O)CC3CCOC3)c2)c2c[nH]cn2)c1C (stereo not drawn) [compound 86]	7.30 to 8.00	> 8.00
Cc1cccc(C(c2cccc(NC(=O)CCCN3CCOCC3)c2)c2c[nH]cn2)c1C (stereo not drawn) [compound 88]	6.60 to 7.30	7.30 to 8.00
Cc1cccc(C(c2cccc(NC(=O)CCN3CCCC3)c2)c2c[nH]cn2)c1C (stereo not drawn) [compound 89]	6.60 to 7.30	7.30 to 8.00
Cc1cccc(C(c2cccc(NC(=O)CCN3CCNCC3)c2)c2c[nH]cn2)c1C (stereo not drawn) [compound 90]	6.60 to 7.30	6.60 to 7.30
Cc1cccc(C(c2cccc(NS(=O)(=O)CCN3CCOCC3)c2)c2c[nH]cn2)c1C (stereo not drawn) [compound 94]	6.60 to 7.30	6.60 to 7.30
Cc1cccc(C(c2cccc(NC3(C)COC3)c2)c2c[nH]cn2)c1C (stereo not drawn) [compound 185]	6.60 to 7.30	–
Cc1cscc1C(c1cccc(NS(C)(=O)=O)c1)c1c[nH]cn1 (stereo not drawn) [compound 403]	6.60 to 7.30	–
CONC(=O)c1ccc2ccccc2c1Nc1ccncc1 [compound 601]	6.60 to 7.30	–
COCCOCCOCCOCCOCCc1ccc2ccccc2c1Nc1ccncc1 [compound 602]	6.60 to 7.30	–
